Numbers after ± are expanded uncertainties.
How the values were obtained:
[1] = for surface tension liquid-gas: 303.15 K, Maximal bubble pressure; for vapor or sublimation pressure / Normal boiling temperature: Ebulliometric method (Recirculating still)
[2] = refractive index (Na D-line) (dimensionless); details: 298.15 K; 101.33 kPa; Liquid; Standard Abbe refractometry
[3] = xn = mol fraction of the nth substance listed; details: for mass density: 298.15 K, 101.3 kPa, Liquid, Vibrating tube method; for surface tension liquid-gas: 303.15 K, Maximal bubble pressure

## CCO [ethanol]
[1]
  surface tension liquid-gas: 21.7 ± 0.26 mN/m
[1]; 334.57 K, Liquid
  vapor or sublimation pressure: 50 ± 0.25 kPa
[1]; 344.02 K, Liquid
  vapor or sublimation pressure: 75 ± 0.41 kPa
[1]; 349.56 K, Liquid
  vapor or sublimation pressure: 94 ± 0.56 kPa
[1]; Liquid
  Normal boiling temperature: 78.30 ± 0.2 °C
[2]
  refractive index: 1.36068 ± 0.00031

## CCO [ethanol] + C1CCOCC1
[3]; x1 = 1
  mass density: 785.11 ± 0.12 kg/m3
  surface tension liquid-gas: 21.7 ± 0.26 mN/m

## C1CCOCC1 [tetrahydropyran]
[1]; 298.15 K, 101.3 kPa, Liquid, Vibrating tube method
  mass density: 879.03 ± 0.09 kg/m3
[1]
  surface tension liquid-gas: 27.1 ± 0.27 mN/m
[1]; 312.59 K, Liquid
  vapor or sublimation pressure: 18.01 ± 0.07 kPa
[1]; 319.62 K, Liquid
  vapor or sublimation pressure: 24.01 ± 0.07 kPa
[1]; 325.36 K, Liquid
  vapor or sublimation pressure: 30.01 ± 0.08 kPa
[1]; 331.7 K, Liquid
  vapor or sublimation pressure: 38.01 ± 0.08 kPa
[1]; 336.4 K, Liquid
  vapor or sublimation pressure: 45.01 ± 0.09 kPa
[1]; 339.33 K, Liquid
  vapor or sublimation pressure: 50 ± 0.3 kPa
[1]; 339.98 K, Liquid
  vapor or sublimation pressure: 51.01 ± 0.09 kPa
[1]; 344.26 K, Liquid
  vapor or sublimation pressure: 59.01 ± 0.1 kPa
[1]; 347.64 K, Liquid
  vapor or sublimation pressure: 66.01 ± 0.11 kPa
[1]; 350.74 K, Liquid
  vapor or sublimation pressure: 73.01 ± 0.11 kPa
[1]; 351.53 K, Liquid
  vapor or sublimation pressure: 75 ± 0.56 kPa
[1]; 353.61 K, Liquid
  vapor or sublimation pressure: 80.01 ± 0.12 kPa
[1]; 356.29 K, Liquid
  vapor or sublimation pressure: 87.01 ± 0.13 kPa
[1]; 358.81 K, Liquid
  vapor or sublimation pressure: 94.01 ± 0.13 kPa
[1]; 358.85 K, Liquid
  vapor or sublimation pressure: 94 ± 0.75 kPa
[1]; 361.55 K, Liquid
  vapor or sublimation pressure: 102.11 ± 0.14 kPa
[1]; Liquid
  Normal boiling temperature: 88.21 ± 0.2 °C
[2]
  refractive index: 1.42 ± 0.00031

## C1CCOCC1 [tetrahydropyran] + CCO
[3]; x2 = 0
  mass density: 879.03 ± 0.09 kg/m3
  surface tension liquid-gas: 27.1 ± 0.27 mN/m
[3]; x2 = 0.03
  mass density: 877.14 ± 0.15 kg/m3
[3]; x2 = 0.115
  mass density: 871.86 ± 0.15 kg/m3
[3]; x2 = 0.193
  mass density: 866.85 ± 0.16 kg/m3
[3]; x2 = 0.299
  mass density: 859.54 ± 0.17 kg/m3
[3]; x2 = 0.426
  mass density: 849.89 ± 0.18 kg/m3
[3]; x2 = 0.496
  mass density: 844.01 ± 0.2 kg/m3
[3]; x2 = 0.599
  mass density: 834.65 ± 0.22 kg/m3
[3]; x2 = 0.716
  mass density: 822.74 ± 0.24 kg/m3
[3]; x2 = 0.799
  mass density: 813.13 ± 0.27 kg/m3
[3]; x2 = 0.91
  mass density: 798.6 ± 0.29 kg/m3
[3]; x2 = 0.959
  mass density: 791.41 ± 0.32 kg/m3
[3]; x2 = 0.068
  surface tension liquid-gas: 26.91 ± 0.27 mN/m
[3]; x2 = 0.122
  surface tension liquid-gas: 26.76 ± 0.27 mN/m
[3]; x2 = 0.223
  surface tension liquid-gas: 26.5 ± 0.27 mN/m
[3]; x2 = 0.323
  surface tension liquid-gas: 25.98 ± 0.27 mN/m
[3]; x2 = 0.42
  surface tension liquid-gas: 25.34 ± 0.27 mN/m
[3]; x2 = 0.52
  surface tension liquid-gas: 24.9 ± 0.27 mN/m
[3]; x2 = 0.604
  surface tension liquid-gas: 24.35 ± 0.27 mN/m
[3]; x2 = 0.622
  surface tension liquid-gas: 24.24 ± 0.27 mN/m
[3]; x2 = 0.657
  surface tension liquid-gas: 24.07 ± 0.27 mN/m
[3]; x2 = 0.707
  surface tension liquid-gas: 23.81 ± 0.26 mN/m
[3]; x2 = 0.722
  surface tension liquid-gas: 23.64 ± 0.26 mN/m
[3]; x2 = 0.821
  surface tension liquid-gas: 23.01 ± 0.26 mN/m
[3]; x2 = 0.918
  surface tension liquid-gas: 22.42 ± 0.26 mN/m
[3]; x2 = 0.963
  surface tension liquid-gas: 22 ± 0.26 mN/m
